# Values of other authors as cited in publication PMC9516332 (Frontiers in Oncology, 2022).
# Read-outs that look alike come from different tables or passages of the source.
# Experiments:
# Settings in all cases: cited from earlier work
# [1] = target: panel of 255 wild-type kinases (Homo sapiens, UniProt P06213)
# [2] = target: panel of 255 wild-type kinases (Homo sapiens, UniProt P11802)
# [3] = target: panel of 255 wild-type kinases (Homo sapiens, UniProt P23458)
# [4] = target: panel of 255 wild-type kinases (Homo sapiens, UniProt P27361)
# [5] = target: panel of 255 wild-type kinases (Homo sapiens, UniProt P48729)
# [6] = target: T1, panel of 255 wild-type kinases (Homo sapiens, UniProt P51817)
# T1 sequence (P51817 1-358): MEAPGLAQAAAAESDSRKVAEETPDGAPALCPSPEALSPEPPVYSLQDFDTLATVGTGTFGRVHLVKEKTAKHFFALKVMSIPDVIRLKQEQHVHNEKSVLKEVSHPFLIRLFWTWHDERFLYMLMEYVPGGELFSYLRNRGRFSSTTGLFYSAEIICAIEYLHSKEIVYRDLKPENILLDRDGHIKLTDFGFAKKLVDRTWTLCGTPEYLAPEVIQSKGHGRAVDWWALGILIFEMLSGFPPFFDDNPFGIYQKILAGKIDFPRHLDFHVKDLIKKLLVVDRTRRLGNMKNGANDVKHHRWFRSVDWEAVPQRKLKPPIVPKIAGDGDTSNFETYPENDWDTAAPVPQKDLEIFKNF
# [7] = target: panel of 255 wild-type kinases (Homo sapiens, UniProt Q02763)
# [8] = target: panel of 255 wild-type kinases (Homo sapiens, UniProt Q13882)
# [9] = target: panel of 255 wild-type kinases (Homo sapiens, UniProt Q16816)
# [10] = target: T2, panel of 255 wild-type kinases (Homo sapiens, UniProt Q9UF33)
# T2 sequence (Q9UF33 23-1036): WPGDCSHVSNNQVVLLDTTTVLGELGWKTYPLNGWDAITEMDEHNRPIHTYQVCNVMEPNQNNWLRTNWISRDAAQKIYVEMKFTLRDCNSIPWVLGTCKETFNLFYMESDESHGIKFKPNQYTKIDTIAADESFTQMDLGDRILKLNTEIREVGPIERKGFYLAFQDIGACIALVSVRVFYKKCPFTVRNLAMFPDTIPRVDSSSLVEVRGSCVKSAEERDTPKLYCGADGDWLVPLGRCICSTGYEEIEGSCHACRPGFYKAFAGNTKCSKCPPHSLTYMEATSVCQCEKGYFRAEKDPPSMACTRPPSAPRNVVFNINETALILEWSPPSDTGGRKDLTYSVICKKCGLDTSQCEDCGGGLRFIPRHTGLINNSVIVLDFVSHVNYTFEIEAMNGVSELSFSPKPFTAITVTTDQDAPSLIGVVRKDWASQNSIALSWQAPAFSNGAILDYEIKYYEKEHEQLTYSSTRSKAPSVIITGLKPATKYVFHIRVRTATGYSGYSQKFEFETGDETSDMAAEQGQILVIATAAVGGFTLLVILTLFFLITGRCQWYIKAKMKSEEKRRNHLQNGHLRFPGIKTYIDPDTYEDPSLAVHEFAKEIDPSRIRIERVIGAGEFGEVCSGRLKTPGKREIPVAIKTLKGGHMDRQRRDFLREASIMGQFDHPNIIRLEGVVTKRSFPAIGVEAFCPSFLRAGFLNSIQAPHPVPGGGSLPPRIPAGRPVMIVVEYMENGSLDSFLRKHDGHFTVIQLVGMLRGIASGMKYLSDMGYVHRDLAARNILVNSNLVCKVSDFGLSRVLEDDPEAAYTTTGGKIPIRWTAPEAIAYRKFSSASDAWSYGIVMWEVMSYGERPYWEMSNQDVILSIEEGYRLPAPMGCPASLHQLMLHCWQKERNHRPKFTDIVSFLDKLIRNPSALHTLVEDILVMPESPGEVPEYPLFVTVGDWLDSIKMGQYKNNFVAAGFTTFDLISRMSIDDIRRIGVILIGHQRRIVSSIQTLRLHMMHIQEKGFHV
# [11] = kinase INSR, 1 µmol/L single concentration, ref DOI: 10.1158/1535-7163.MCT-18-0877
# [12] = CDK4/CycD3 kinase assay, 1 µmol/L single concentration, ref DOI: 10.1158/1535-7163.MCT-18-0877
# [13] = kinase JAK1, 1 µmol/L single concentration, ref DOI: 10.1158/1535-7163.MCT-18-0877
# [14] = kinase Erk1, 1 µmol/L single concentration, ref DOI: 10.1158/1535-7163.MCT-18-0877
# [15] = kinase CK1α, 1 µmol/L single concentration, ref DOI: 10.1158/1535-7163.MCT-18-0877
# [16] = kinase PRKX, 1 µmol/L single concentration, ref DOI: 10.1158/1535-7163.MCT-18-0877
# [17] = kinase TIE2, 1 µmol/L single concentration, ref DOI: 10.1158/1535-7163.MCT-18-0877
# [18] = BRK kinase assay, 1 µmol/L single concentration, ref DOI: 10.1158/1535-7163.MCT-18-0877
# [19] = kinase PHKG1, 1 µmol/L single concentration, ref DOI: 10.1158/1535-7163.MCT-18-0877
# [20] = kinase EPHA6, 1 µmol/L single concentration, ref DOI: 10.1158/1535-7163.MCT-18-0877
# [21] = kinase INSR, 1 µmol/L single concentration, ref DOI: 10.1371/journal.pone.0092146
# [22] = CDK4/CycD3 kinase assay, 1 µmol/L single concentration, ref DOI: 10.1371/journal.pone.0092146
# [23] = kinase JAK1, 1 µmol/L single concentration, ref DOI: 10.1371/journal.pone.0092146
# [24] = kinase Erk1, 1 µmol/L single concentration, ref DOI: 10.1371/journal.pone.0092146
# [25] = kinase CK1α, 1 µmol/L single concentration, ref DOI: 10.1371/journal.pone.0092146
# [26] = kinase PRKX, 1 µmol/L single concentration, ref DOI: 10.1371/journal.pone.0092146
# [27] = kinase TIE2, 1 µmol/L single concentration, ref DOI: 10.1371/journal.pone.0092146
# [28] = BRK kinase assay, 1 µmol/L single concentration, ref DOI: 10.1371/journal.pone.0092146
# [29] = kinase PHKG1, 1 µmol/L single concentration, ref DOI: 10.1371/journal.pone.0092146
# [30] = kinase EPHA6, 1 µmol/L single concentration, ref DOI: 10.1371/journal.pone.0092146
Structure (SMILES),"%-inhibition at 1 µmol/L, INSR [1, 11] [%]","%-inhibition CDK4/CycD3 [2, 12] [%]","%-inhibition at 1 µmol/L, JAK1 [3, 13] [%]","%-inhibition at 1 µmol/L, Erk1 [4, 14] [%]","%-inhibition at 1 µmol/L, CK1α [5, 15] [%]","%-inhibition at 1 µmol/L, PRKX [6, 16] [%]","%-inhibition at 1 µmol/L, TIE2 [7, 17] [%]","%-inhibition BRK [8, 18] [%]","%-inhibition at 1 µmol/L, PHKG1 [9, 19] [%]","%-inhibition at 1 µmol/L, EPHA6 [10, 20] [%]",further results
CC#CC(=O)N1CCC[C@H]1c1nc(-c2ccc(C(=O)Nc3ccccn3)cc2)c2c(N)nccn12 [acalabrutinib],-4.67,-13,-13,-2.38,10,-4.59,-5.36,51,-4,-2.37,
CCc1cc2c(cc1N1CCC(N3CCOCC3)CC1)C(C)(C)c1[nH]c3cc(C#N)ccc3c1C2=O [alectinib],83,-1.89,-10,1.41,22,1.81,2,9,78,0.529,
COc1cc(N2CCC(N3CCN(C)CC3)CC2)ccc1Nc1ncc(Cl)c(Nc2ccccc2P(C)(C)=O)n1 [brigatinib],,,,,,,,,,,"%-inhibition at 1 µmol/L, INSR [1]: 101%; %-inhibition CDK4/CycD3 [2]: 40%; %-inhibition at 1 µmol/L, JAK1 [3]: 31%; %-inhibition at 1 µmol/L, Erk1 [4]: 3.68%; %-inhibition at 1 µmol/L, CK1α [5]: 11%; %-inhibition at 1 µmol/L, PRKX [6]: 47%; %-inhibition at 1 µmol/L, TIE2 [7]: 75%; %-inhibition BRK [8]: 103%; %-inhibition at 1 µmol/L, PHKG1 [9]: 96%; %-inhibition at 1 µmol/L, EPHA6 [10]: 20%"
Cc1cc(Nc2ncc(Cl)c(Nc3ccccc3S(=O)(=O)C(C)C)n2)c(OC(C)C)cc1C1CCNCC1 [ceritinib],102,4.63,-4.51,35,7,11,-13,98,91,29,
O=C(c1ccc(F)c(F)c1Nc1ccc(I)cc1F)N1CC(O)([C@@H]2CCCCN2)C1 [cobimetinib],2.48,0.294,-8.53,-0.916,2,2.17,19,-1,3,1.6,
C[C@@H](Oc1cc(-c2cnn(C3CCNCC3)c2)cnc1N)c1c(Cl)ccc(F)c1Cl [crizotinib],,,,,,,,,,,"%-inhibition at 1 µmol/L, INSR [1, 21]: 84%; %-inhibition CDK4/CycD3 [2, 22]: 7%; %-inhibition at 1 µmol/L, JAK1 [3, 23]: 47%; %-inhibition at 1 µmol/L, Erk1 [4, 24]: -2%; %-inhibition at 1 µmol/L, CK1α [5, 25]: -1.36%; %-inhibition at 1 µmol/L, PRKX [6, 26]: -7%; %-inhibition at 1 µmol/L, TIE2 [7, 27]: 83%; %-inhibition BRK [8, 28]: 15%; %-inhibition at 1 µmol/L, PHKG1 [9, 29]: 2.74%; %-inhibition at 1 µmol/L, EPHA6 [10, 30]: 100%"
CC(C)(C)c1nc(-c2cccc(NS(=O)(=O)c3c(F)cccc3F)c2F)c(-c2ccnc(N)n2)s1 [dabrafenib],,,,,,,,,,,"%-inhibition at 1 µmol/L, INSR [1, 21]: 7.51%; %-inhibition CDK4/CycD3 [2, 22]: 23%; %-inhibition at 1 µmol/L, JAK1 [3, 23]: 5.7%; %-inhibition at 1 µmol/L, Erk1 [4, 24]: -1.62%; %-inhibition at 1 µmol/L, CK1α [5, 25]: 13%; %-inhibition at 1 µmol/L, PRKX [6, 26]: -1.55%; %-inhibition at 1 µmol/L, TIE2 [7, 27]: 81%; %-inhibition BRK [8, 28]: 98%; %-inhibition at 1 µmol/L, PHKG1 [9, 29]: -0.59%; %-inhibition at 1 µmol/L, EPHA6 [10, 30]: 88%"
C=CC(=O)N1CCC[C@@H](n2nc(-c3ccc(Oc4ccccc4)cc3)c3c(N)ncnc32)C1 [ibrutinib],9.51,4,-10,1.74,-2,0.66,29,,1.53,93,%-inhibition BRK [8]: 103%
CO[C@@H]1[C@H](N(C)C(=O)c2ccccc2)C[C@H]2O[C@]1(C)n1c3ccccc3c3c4c(c5c6ccccc6n2c5c31)C(=O)NC4 [midostaurin],35,-1.1,97,-0.653,3.51,97,30,11,97,19,
C=CC(=O)Nc1cc(Nc2nccc(-c3cn(C)c4ccccc34)n2)c(OC)cc1N(C)CCN(C)C [osimertinib],86,2.42,-6,-3.18,4.46,1.37,3.73,101,38,2.33,
CC(=O)Nc1cccc(-n2c(=O)n(C3CC3)c(=O)c3c(Nc4ccc(I)cc4F)n(C)c(=O)c(C)c32)c1 [trametinib],,,,,,,,,,,"%-inhibition at 1 µmol/L, INSR [1, 21]: -30%; %-inhibition CDK4/CycD3 [2, 22]: 5.62%; %-inhibition at 1 µmol/L, JAK1 [3, 23]: -1.83%; %-inhibition at 1 µmol/L, Erk1 [4, 24]: -1.14%; %-inhibition at 1 µmol/L, CK1α [5, 25]: 3%; %-inhibition at 1 µmol/L, PRKX [6, 26]: -1.19%; %-inhibition at 1 µmol/L, TIE2 [7, 27]: -7%; %-inhibition BRK [8, 28]: -5.53%; %-inhibition at 1 µmol/L, PHKG1 [9, 29]: -2.24%; %-inhibition at 1 µmol/L, EPHA6 [10, 30]: -2.51%"
